What was measured:
SLC22A15 = target: T1, SLC22A15 (Homo sapiens, UniProt Q8IZD6); assay: Uptake ratio screen, SLC22A15-overexpressing HEK293 over empty vector cells; assay type: cell-based; conditions: 2.5 μM (nicotine 10 μM), 2 min
T1 construct: by amplifying the entire gene-of-interest within the HEK293 genome via a long-range PCR
Procedure: (§1) Typically discussed substrates of the proton organic-cation antiporter ([14]) are highlighted in dark green in Figure 1.
(§2) In preparation for transport experiments, 24-well plates were pre-coated with poly-D-lysine (Sigma-Aldrich) and 300,000 cells were plated per well and incubated for 48 h. Firstly, the 24-well plate was placed on a heating plate at 37 °C, and the cells were washed with 37 °C HBSS^+ buffer (Hank’s balanced salt solution supplemented with 10 mM Hepes and adjusted to pH 7.4; Thermo Fisher Scientific). The substance-of-interest, which was diluted in 37 °C HBSS^+ to a desired concentration, was added to the cells for exactly 2 min. […] The uptake was stopped with ice-cold HBSS^+, and the 24-well plate was removed from the heating plate. The cells were washed twice with the cold HBSS^+ before they were lysed for 15 min with 80% (v/v) acetonitrile containing the respective internal standard for mass spectrometry. For variations in seeded cell numbers between the cell lines, several wells were lysed in RIPA buffer and used for total protein quantification using a bicinchoninic assay ([74]) and bovine serum albumin as calibration.
The intracellular drug concentrations after transport experiments were analyzed by high-performance liquid chromatography coupled to tandem mass spectrometry analysis. The HPLC consisted of a Shimadzu Nexera HPLC System with a SIL-30AC autosampler, a LC-30AD pump, a CTO-20AC column oven, and a CBM-20A controller (Shimadzu). The reverse-phase chromatography of compounds was accomplished with a Brownlee SPP RP-Amide column with 4.6 × 100 mm inner dimensions, a particle size of 2.7 μm, and a preceding Phenomenex C-18 guard column. The mobile phase was composed of an organic additive with acetonitrile:methanol 6:1 (v/v) in total concentrations between 3% and 50% (v/v) and 0.1% (v/v) formic acid in the aqueous component of the eluent. During separation, the column oven was held at 40 °C and the mobile phase was maintained at a flow rate of 300 or 400 μl/min. After separation, the detection of substances was performed with an API 4000 tandem mass spectrometer (AB SCIEX, https://sciex.com/support/software-support/software-downloads), followed by quantification of results with the Analyst software (AB SCIEX, version 1.6.2). The composition of chromatographic conditions, as well as detailed mass spectrometric detection parameters, are listed in Table S5.
(§3) Transport-mediated net uptake was determined as fold-increase of transporter-overexpressing cells over empty vector–transfected control cells.

SLC35F2 = target: T2, SLC35F2 (Homo sapiens, UniProt Q8IXU6)
T2 sequence (Q8IXU6 1-374): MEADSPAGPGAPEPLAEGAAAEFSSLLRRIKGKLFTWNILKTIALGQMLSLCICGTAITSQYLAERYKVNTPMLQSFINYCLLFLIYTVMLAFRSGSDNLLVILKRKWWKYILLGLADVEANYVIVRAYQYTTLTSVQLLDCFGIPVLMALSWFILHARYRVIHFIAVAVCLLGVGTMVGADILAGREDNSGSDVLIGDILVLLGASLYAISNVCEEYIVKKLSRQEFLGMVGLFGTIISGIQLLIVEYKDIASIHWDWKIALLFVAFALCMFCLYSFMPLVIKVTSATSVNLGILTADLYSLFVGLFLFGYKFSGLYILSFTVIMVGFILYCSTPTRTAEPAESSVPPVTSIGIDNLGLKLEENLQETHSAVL

SLC35G3 [1] = target: T3, SLC35G3 (Homo sapiens, UniProt Q8N808)
T3 sequence (Q8N808 whole entry): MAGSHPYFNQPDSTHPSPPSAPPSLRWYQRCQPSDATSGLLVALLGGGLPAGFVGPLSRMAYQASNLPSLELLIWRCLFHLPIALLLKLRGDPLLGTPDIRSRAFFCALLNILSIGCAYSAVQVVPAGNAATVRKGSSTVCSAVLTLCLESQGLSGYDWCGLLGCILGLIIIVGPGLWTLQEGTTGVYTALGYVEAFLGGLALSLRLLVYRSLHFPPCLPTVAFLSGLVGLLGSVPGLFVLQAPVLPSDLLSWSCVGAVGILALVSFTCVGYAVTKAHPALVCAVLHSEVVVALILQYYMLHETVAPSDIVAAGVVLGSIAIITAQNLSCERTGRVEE

SLC38A10 = SLC38A10 (Homo sapiens, UniProt Q9HBR0)
Sequence of SLC38A10 (Q9HBR0 whole entry): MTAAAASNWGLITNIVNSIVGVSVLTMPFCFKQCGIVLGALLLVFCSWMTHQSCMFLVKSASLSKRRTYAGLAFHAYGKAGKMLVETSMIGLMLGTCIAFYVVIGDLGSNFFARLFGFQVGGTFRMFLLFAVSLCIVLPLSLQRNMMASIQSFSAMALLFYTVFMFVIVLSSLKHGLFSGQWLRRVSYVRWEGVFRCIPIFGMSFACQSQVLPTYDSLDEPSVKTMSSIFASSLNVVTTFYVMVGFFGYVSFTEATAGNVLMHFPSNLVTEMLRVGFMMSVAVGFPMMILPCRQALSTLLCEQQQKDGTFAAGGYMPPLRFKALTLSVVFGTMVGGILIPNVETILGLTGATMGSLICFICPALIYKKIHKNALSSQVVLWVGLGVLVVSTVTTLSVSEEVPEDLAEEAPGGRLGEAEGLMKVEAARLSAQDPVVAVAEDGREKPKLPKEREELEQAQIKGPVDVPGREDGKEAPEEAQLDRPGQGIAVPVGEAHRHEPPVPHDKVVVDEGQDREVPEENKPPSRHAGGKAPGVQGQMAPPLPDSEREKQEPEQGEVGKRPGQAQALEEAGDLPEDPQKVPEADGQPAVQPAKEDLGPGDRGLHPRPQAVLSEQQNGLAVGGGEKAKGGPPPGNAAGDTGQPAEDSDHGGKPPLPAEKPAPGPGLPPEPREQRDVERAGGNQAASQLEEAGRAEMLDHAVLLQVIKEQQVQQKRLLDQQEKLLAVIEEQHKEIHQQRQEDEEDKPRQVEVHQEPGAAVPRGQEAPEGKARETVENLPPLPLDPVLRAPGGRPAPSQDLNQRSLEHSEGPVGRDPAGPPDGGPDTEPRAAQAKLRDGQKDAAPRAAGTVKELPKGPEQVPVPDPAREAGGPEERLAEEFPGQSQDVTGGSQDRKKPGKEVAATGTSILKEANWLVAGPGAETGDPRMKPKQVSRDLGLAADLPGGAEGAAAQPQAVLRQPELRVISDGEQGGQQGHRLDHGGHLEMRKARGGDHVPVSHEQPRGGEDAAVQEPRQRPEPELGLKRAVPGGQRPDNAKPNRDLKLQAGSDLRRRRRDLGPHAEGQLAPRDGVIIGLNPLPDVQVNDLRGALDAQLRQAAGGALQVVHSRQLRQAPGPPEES

SLC35G3 [2] = target: T3, SLC35G3; assay: Uptake ratio screen, SLC35G3-overexpressing HEK293 over empty vector cells; assay type: cell-based; design: by amplifying the entire gene-of-interest within the HEK293 genome via a long-range PCR; conditions: 2.5 μM substrate, 2 min, HEK293
SLC35E2A [3] = target: T4, SLC35E2A (Homo sapiens, UniProt P0CK97)
T4 sequence (P0CK97 whole entry): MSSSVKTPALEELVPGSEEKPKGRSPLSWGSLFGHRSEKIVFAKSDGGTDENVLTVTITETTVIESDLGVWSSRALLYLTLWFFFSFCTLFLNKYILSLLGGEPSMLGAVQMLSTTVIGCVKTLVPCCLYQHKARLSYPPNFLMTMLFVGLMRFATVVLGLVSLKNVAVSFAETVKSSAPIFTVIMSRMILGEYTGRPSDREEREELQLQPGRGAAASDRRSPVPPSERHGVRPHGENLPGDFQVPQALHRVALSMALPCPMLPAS

SLC35E2A [4] = target: T4, SLC35E2A; assay: Uptake ratio screen, SLC35E2A-overexpressing HEK293 over empty vector cells; assay type: cell-based; design: by amplifying the entire gene-of-interest within the HEK293 genome via a long-range PCR; conditions: 2.5 μM, 2 min
Procedure: as §1, §2
The intracellular drug concentrations after transport experiments were analyzed by high-performance liquid chromatography coupled to tandem mass spectrometry analysis. The HPLC consisted of a Shimadzu Nexera HPLC System with a SIL-30AC autosampler, a LC-30AD pump, a CTO-20AC column oven, and a CBM-20A controller (Shimadzu). The reverse-phase chromatography of compounds was accomplished with a Brownlee SPP RP-Amide column with 4.6 × 100 mm inner dimensions, a particle size of 2.7 μm, and a preceding Phenomenex C-18 guard column. […] After separation, the detection of substances was performed with an API 4000 tandem mass spectrometer (AB SCIEX, https://sciex.com/support/software-support/software-downloads), followed by quantification of results with the Analyst software (AB SCIEX, version 1.6.2). […]
as §3

T1 sequence (Q8IZD6 whole entry): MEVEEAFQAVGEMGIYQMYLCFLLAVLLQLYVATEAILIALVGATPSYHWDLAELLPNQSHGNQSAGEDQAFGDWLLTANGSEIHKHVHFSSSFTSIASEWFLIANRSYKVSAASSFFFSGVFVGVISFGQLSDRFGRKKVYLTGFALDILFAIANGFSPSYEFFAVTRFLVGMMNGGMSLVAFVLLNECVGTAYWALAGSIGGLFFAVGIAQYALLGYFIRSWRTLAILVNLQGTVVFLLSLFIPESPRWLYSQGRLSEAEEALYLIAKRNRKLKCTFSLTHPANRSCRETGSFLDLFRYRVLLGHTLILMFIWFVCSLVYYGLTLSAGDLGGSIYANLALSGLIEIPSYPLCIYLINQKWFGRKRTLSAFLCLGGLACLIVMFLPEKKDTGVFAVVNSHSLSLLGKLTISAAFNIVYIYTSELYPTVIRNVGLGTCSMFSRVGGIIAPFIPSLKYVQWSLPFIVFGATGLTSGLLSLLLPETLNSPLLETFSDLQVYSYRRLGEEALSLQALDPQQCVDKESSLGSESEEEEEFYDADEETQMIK

Row | SMILES | Uptake by SLC22A15 (in words) (SLC22A15) | Vmax (±SEM) (SLC35F2; SLC35F2, HEK293, net uptake over empty vector cells) | Clint (±SEM) (SLC35F2; human) | Km (SLC35F2; read-out: KM (±SEM), SLC35F2, HEK293, net uptake over empty vector cells) | Clint (±SEM) (SLC35G3 [1]) | Clint (±SEM) (SLC38A10) | Uptake data for SLC35G3, mean value (fold-increase over empty vector control) (SLC35G3 [2]) | Clint (±SEM) (SLC35E2A [3]) | Uptake by SLC35E2A (in words) (SLC35E2A [4])
1 | Clc1cccc(Cl)c1N=C1NCCN1 [Clonidine] | significantly increased the uptake | 304 (±57.7) pmol × mg protein^-1 × min^-1 | 2.06 (±1.62) μl × mg protein^-1 × min^-1 | 147 µM | 4.85 (±3.17) μl × mg protein^-1 × min^-1 | 2.64 (±3.0) μl × mg protein^-1 × min^-1 | 1.54 | – | –
2 | c1cnc2cc3c(cc2n1)[C@@H]1CNC[C@H]3C1 [Varenicline] | significantly increased the uptake | – | – | – | – | – | 1.60 | 1.79 (±1.06) μl × mg protein^-1 × min^-1 | relatively high activity
